pIC50: −log10 of the molar value. ≈ marks a conversion by molar mass, not a printed value.
Tests used:
Nakaseomyces glabratus = assay: Antifungal activity against Candida glabrata by CLSI based broth microdilution method; format: functional
Candida albicans [1] = assay: Antifungal activity against FCZ-resistant Candida albicans 632 by CLSI based broth microdilution method; format: functional
[2] = target: T1, Lanosterol 14-alpha demethylase (Candida albicans (strain SC5314 / ATCC MYA-2876) (Yeast), UniProt P10613); assay: Inhibition of CYP51 of Candida albicans ATCC SC5314 assessed as decrease in ergosterol level by measuring residual activity at 2 ug/ml incubated for 16 hrs by GC-MS analysis (reference value: 98.3 %); conditions: at 2 µg/mL
T1 sequence (P10613 whole entry): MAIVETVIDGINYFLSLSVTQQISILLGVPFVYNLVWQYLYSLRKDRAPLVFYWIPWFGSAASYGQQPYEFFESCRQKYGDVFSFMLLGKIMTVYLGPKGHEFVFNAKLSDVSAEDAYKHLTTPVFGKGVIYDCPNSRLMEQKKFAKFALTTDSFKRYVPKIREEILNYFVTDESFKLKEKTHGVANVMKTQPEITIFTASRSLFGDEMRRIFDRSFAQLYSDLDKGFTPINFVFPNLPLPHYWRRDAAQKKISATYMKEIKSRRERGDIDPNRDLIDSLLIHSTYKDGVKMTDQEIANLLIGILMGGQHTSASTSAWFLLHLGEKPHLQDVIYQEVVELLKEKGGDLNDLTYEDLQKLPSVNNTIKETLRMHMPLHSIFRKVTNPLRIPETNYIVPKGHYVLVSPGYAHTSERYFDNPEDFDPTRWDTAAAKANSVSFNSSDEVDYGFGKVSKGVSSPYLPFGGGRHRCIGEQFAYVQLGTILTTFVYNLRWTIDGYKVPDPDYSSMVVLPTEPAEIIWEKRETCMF

[3] = Cytotoxicity against human MDA-MB-231 cells by MTT assay; format: toxicity, cell-based
[4] = target: T1, Lanosterol 14-alpha demethylase; assay: Inhibition of CYP51 of Candida albicans ATCC SC5314 assessed as increase in eburicol level at 8 ug/ml incubated for 16 hrs by GC-MS analysis (reference value: 0 %); set-up: scale not given: the % may be the effect or the level left; conditions: at 8 µg/mL
[5] = target: T1, Lanosterol 14-alpha demethylase; assay: Inhibition of CYP51 of Candida albicans ATCC SC5314 assessed as decrease in ergosterol level by measuring residual activity at 1 ug/ml incubated for 16 hrs by GC-MS analysis (reference value: 98.3 %); conditions: at 1 µg/mL
[6] = target: T1, Lanosterol 14-alpha demethylase; assay: Inhibition of CYP51 of Candida albicans ATCC SC5314 assessed as increase in obtusifoliol level at 2 ug/ml incubated for 16 hrs by GC-MS analysis (reference value: 0 %); set-up: scale not given: the % may be the effect or the level left; conditions: at 2 µg/mL
Candida albicans [7] = assay: Antifungal activity against FCZ-resistant Candida albicans 901 by CLSI based broth microdilution method; format: functional
Candida albicans [8] = assay: Antibiofilm activity against Candida albicans SC5314 assessed as sessile minimum inhibitory concentration measured after 3 hrs by XTT assay; format: functional
[9] = target: T1, Lanosterol 14-alpha demethylase; assay: Inhibition of CYP51 of Candida albicans ATCC SC5314 assessed as increase in obtusifoliol level at 4 ug/ml incubated for 16 hrs by GC-MS analysis (reference value: 0 %); set-up: scale not given: the % may be the effect or the level left; conditions: at 4 µg/mL
Candida albicans [10] = assay: Antifungal activity against Candida albicans by CLSI based broth microdilution method; format: functional
[11] = target: T1, Lanosterol 14-alpha demethylase; assay: Inhibition of CYP51 of Candida albicans ATCC SC5314 assessed as increase in eburicol level at 1 ug/ml incubated for 16 hrs by GC-MS analysis (reference value: 0 %); set-up: scale not given: the % may be the effect or the level left; conditions: at 1 µg/mL
Candida albicans [12] = assay: Antifungal activity against FCZ-resistant Candida albicans 17# by CLSI based broth microdilution method; format: functional
Candida albicans [13] = assay: Antibiofilm activity against Candida albicans CPCC400616 assessed as sessile minimum inhibitory concentration measured after 3 hrs by XTT assay; format: functional
Candida albicans [14] = assay: Antibiofilm activity against Candida albicans CPCC400616 assessed as sessile minimum inhibitory concentration measured after 24 hrs by XTT assay; format: functional
Aspergillus fumigatus = assay: Antifungal activity against Aspergillus fumigatus by CLSI based broth microdilution method; format: functional
Candida albicans [15] = assay: Fungicidal activity against FCZ-resistant Candida albicans CaR; format: functional
Pichia kudriavzevii = assay: Antifungal activity against Pichia kudriavzevii by CLSI based broth microdilution method; format: functional
Candida albicans [16] = assay: Fungicidal activity against FCZ-resistant Candida albicans 901; format: functional
[17] = target: T1, Lanosterol 14-alpha demethylase; assay: Inhibition of CYP51 of Candida albicans ATCC SC5314 assessed as increase in eburicol level at 4 ug/ml incubated for 16 hrs by GC-MS analysis (reference value: 0 %); set-up: scale not given: the % may be the effect or the level left; conditions: at 4 µg/mL
[18] = target: T1, Lanosterol 14-alpha demethylase; assay: Inhibition of CYP51 of Candida albicans ATCC SC5314 assessed as decrease in ergosterol level by measuring residual activity at 4 ug/ml incubated for 16 hrs by GC-MS analysis (reference value: 98.3 %); conditions: at 4 µg/mL
[Candida] zeylanoides = Antifungal activity against Candida zeylanoides by CLSI based broth microdilution method; format: functional; conditions: Dujonia zeylanoides
Candida albicans [19] = assay: Fungicidal activity against FCZ-resistant Candida albicans 904; format: functional
Cryptococcus neoformans = assay: Antifungal activity against Cryptococcus neoformans by CLSI based broth microdilution method; format: functional
[20] = target: T1, Lanosterol 14-alpha demethylase; assay: Inhibition of CYP51 of Candida albicans ATCC SC5314 assessed as increase in lanosterol level at 2 ug/ml incubated for 16 hrs by GC-MS analysis (reference value: 1.7 %); set-up: scale not given: the % may be the effect or the level left; conditions: at 2 µg/mL
[21] = target: T1, Lanosterol 14-alpha demethylase; assay: Inhibition of CYP51 of Candida albicans ATCC SC5314 assessed as increase in lanosterol level at 8 ug/ml incubated for 16 hrs by GC-MS analysis (reference value: 1.7 %); set-up: scale not given: the % may be the effect or the level left; conditions: at 8 µg/mL
Candida parapsilosis = assay: Antifungal activity against Candida parapsilosis by CLSI based broth microdilution method; format: functional; conditions: Lodderomyces parapsilosis
[22] = target: T1, Lanosterol 14-alpha demethylase; assay: Inhibition of CYP51 of Candida albicans ATCC SC5314 assessed as increase in obtusifoliol level at 1 ug/ml incubated for 16 hrs by GC-MS analysis (reference value: 0 %); set-up: scale not given: the % may be the effect or the level left; conditions: at 1 µg/mL
Candida albicans [23] = assay: Antibiofilm activity against Candida albicans SC5314 assessed as sessile minimum inhibitory concentration measured after 24 hrs by XTT assay; format: functional
[24] = target: T1, Lanosterol 14-alpha demethylase; assay: Inhibition of CYP51 of Candida albicans ATCC SC5314 assessed as increase in eburicol level at 2 ug/ml incubated for 16 hrs by GC-MS analysis (reference value: 0 %); set-up: scale not given: the % may be the effect or the level left; conditions: at 2 µg/mL
[25] = Cytotoxicity against human HL-60 cells by MTT assay; format: toxicity, cell-based
Candida albicans [26] = assay: Fungicidal activity against FCZ-resistant Candida albicans 632; format: functional
Candida albicans [27] = assay: Fungicidal activity against Candida albicans; format: functional
Candida albicans [28] = assay: Antibiofilm activity against Candida albicans CPCC400616 assessed as sessile minimum inhibitory concentration measured after 1.5 hrs by XTT assay; format: functional
Candida albicans [29] = assay: Antifungal activity against Candida albicans sc5314 by CLSI based broth microdilution method; format: functional
Candida albicans [30] = assay: Fungicidal activity against FCZ-resistant Candida albicans 17#; format: functional
[31] = Cytotoxicity against human PC-3 cells by MTT assay; format: toxicity, cell-based
[32] = target: T1, Lanosterol 14-alpha demethylase; assay: Inhibition of CYP51 of Candida albicans ATCC SC5314 assessed as increase in lanosterol level at 4 ug/ml incubated for 16 hrs by GC-MS analysis (reference value: 1.7 %); set-up: scale not given: the % may be the effect or the level left; conditions: at 4 µg/mL
[33] = target: T1, Lanosterol 14-alpha demethylase; assay: Inhibition of CYP51 of Candida albicans ATCC SC5314 assessed as increase in lanosterol level at 1 ug/ml incubated for 16 hrs by GC-MS analysis (reference value: 1.7 %); set-up: scale not given: the % may be the effect or the level left; conditions: at 1 µg/mL
Candida albicans [34] = assay: Antifungal activity against FCZ-resistant Candida albicans 904 by CLSI based broth microdilution method; format: functional
Candida albicans [35] = assay: Antibiofilm activity against Candida albicans SC5314 assessed as sessile minimum inhibitory concentration measured after 6 hrs by XTT assay; format: functional
Candida albicans [36] = assay: Antibiofilm activity against Candida albicans CPCC400616 assessed as sessile minimum inhibitory concentration measured after 6 hrs by XTT assay; format: functional
[37] = target: T1, Lanosterol 14-alpha demethylase; assay: Inhibition of CYP51 of Candida albicans ATCC SC5314 assessed as decrease in ergosterol level by measuring residual activity at 8 ug/ml incubated for 16 hrs by GC-MS analysis (reference value: 98.3 %); conditions: at 8 µg/mL
[38] = target: T1, Lanosterol 14-alpha demethylase; assay: Inhibition of CYP51 of Candida albicans ATCC SC5314 assessed as increase in obtusifoliol level at 8 ug/ml incubated for 16 hrs by GC-MS analysis (reference value: 0 %); set-up: scale not given: the % may be the effect or the level left; conditions: at 8 µg/mL
Candida albicans [39] = assay: Antibiofilm activity against Candida albicans SC5314 assessed as sessile minimum inhibitory concentration measured after 1.5 hrs by XTT assay; format: functional
Candida albicans [40] = assay: Antifungal activity against FCZ-resistant Candida albicans CaR by CLSI based broth microdilution method; format: functional
Candida albicans [41] = assay: Fungicidal activity against Candida albicans sc5314; format: functional

With `Clc1ccc(C(Cn2ccnc2)[Se]C(Cn2ccnc2)c2ccc(Cl)cc2)cc1` (stereo not given) as the compound, how does the MIC (Nakaseomyces glabratus) read?
Its MIC is 64 µg/mL (≈ 131 µM).

What about the MIC (Candida albicans [1]) of the same compound?
The MIC was 2 µg/mL (≈ 4.08 µM).

And the Activity [2]?
Its Activity is 10.4%.

What about the pIC50 [3] of the same compound?
The pIC50 was 5.49.

What about the Activity [4] of the same compound?
The Activity was 55.5%.

And the Activity [5]?
The Activity was 64.7%.

What about the Activity [6] of the same compound?
The Activity was 18%.

What about the MIC (Candida albicans [7]) of the same compound?
The MIC was 1 µg/mL (≈ 2.04 µM).

What about the MIC50 (Candida albicans [8]) of the same compound?
Its MIC50 is 0.5 µg/mL (≈ 1.02 µM).

What about the MIC80 (Candida albicans [8]) of the same compound?
Its MIC80 is 2 µg/mL (≈ 4.08 µM).

What about the Activity [9] of the same compound?
Its Activity is 9.5%.

What about the MIC (Candida albicans [10]) of the same compound?
Its MIC is 2 µg/mL (≈ 4.08 µM).

And the Activity [11]?
The Activity was 29.3%.

What about the MIC (Candida albicans [12]) of the same compound?
The MIC was 1 µg/mL (≈ 2.04 µM).

What about the MIC50 (Candida albicans [13]) of the same compound?
Its MIC50 is 0.5 µg/mL (≈ 1.02 µM).

And the MIC80 (Candida albicans [13])?
The MIC80 was 2 µg/mL (≈ 4.08 µM).

What about the MIC50 (Candida albicans [14]) of the same compound?
The MIC50 was 2 µg/mL (≈ 4.08 µM).

What about the MIC80 (Candida albicans [14]) of the same compound?
The MIC80 was 4 µg/mL (≈ 8.16 µM).

What about the MIC (Aspergillus fumigatus) of the same compound?
Its MIC is over 64 µg/mL.

What about the MFC (Candida albicans [15]) of the same compound?
Its MFC is over 64 µg/mL.

What about the MIC (Pichia kudriavzevii) of the same compound?
The MIC was 16 µg/mL (≈ 32.6 µM).

What about the MFC (Candida albicans [16]) of the same compound?
Its MFC is 2 µg/mL (≈ 4.08 µM).

What about the Activity [17] of the same compound?
Its Activity is 73.8%.

What about the Activity [18] of the same compound?
Its Activity is 4.4%.

And the MIC ([Candida] zeylanoides)?
The MIC was 8 µg/mL (≈ 16.3 µM).

And the MFC (Candida albicans [19])?
Its MFC is 1 µg/mL (≈ 2.04 µM).

And the MIC (Cryptococcus neoformans)?
Its MIC is over 64 µg/mL.

And the Activity [20]?
The Activity was 15.4%.

What about the Activity [21] of the same compound?
Its Activity is 17%.

And the MIC (Candida parapsilosis)?
The MIC was 2 µg/mL (≈ 4.08 µM).

And the Activity [22]?
The Activity was 1%.

What about the MIC50 (Candida albicans [23]) of the same compound?
Its MIC50 is 0.5 µg/mL (≈ 1.02 µM).

What about the MIC80 (Candida albicans [23]) of the same compound?
Its MIC80 is 2 µg/mL (≈ 4.08 µM).

What about the Activity [24] of the same compound?
Its Activity is 56.2%.

What about the pIC50 [25] of the same compound?
Its pIC50 is 5.29.

And the MFC (Candida albicans [26])?
The MFC was 4 µg/mL (≈ 8.16 µM).

What about the MFC (Candida albicans [27]) of the same compound?
Its MFC is 32 µg/mL (≈ 65.3 µM).

And the MIC50 (Candida albicans [28])?
Its MIC50 is 0.5 µg/mL (≈ 1.02 µM).

And the MIC80 (Candida albicans [28])?
Its MIC80 is 2 µg/mL (≈ 4.08 µM).

And the MIC (Candida albicans [29])?
Its MIC is 1 µg/mL (≈ 2.04 µM).

What about the MFC (Candida albicans [30]) of the same compound?
Its MFC is over 64 µg/mL.

What about the pIC50 [31] of the same compound?
Its pIC50 is 6.01.

What about the Activity [32] of the same compound?
The Activity was 12.4%.

And the Activity [33]?
Its Activity is 5.1%.

What about the MIC (Candida albicans [34]) of the same compound?
Its MIC is 1 µg/mL (≈ 2.04 µM).

And the MIC50 (Candida albicans [35])?
The MIC50 was 0.5 µg/mL (≈ 1.02 µM).

What about the MIC80 (Candida albicans [35]) of the same compound?
The MIC80 was 4 µg/mL (≈ 8.16 µM).

What about the MIC50 (Candida albicans [36]) of the same compound?
Its MIC50 is 1 µg/mL (≈ 2.04 µM).

And the MIC80 (Candida albicans [36])?
Its MIC80 is 2 µg/mL (≈ 4.08 µM).

And the Activity [37]?
Its Activity is 3.7%.

And the Activity [38]?
Its Activity is 23.8%.

What about the MIC50 (Candida albicans [39]) of the same compound?
The MIC50 was 0.5 µg/mL (≈ 1.02 µM).

What about the MIC80 (Candida albicans [39]) of the same compound?
Its MIC80 is 2 µg/mL (≈ 4.08 µM).

And the MIC (Candida albicans [40])?
Its MIC is 4 µg/mL (≈ 8.16 µM).

What about the MFC (Candida albicans [41]) of the same compound?
The MFC was 2 µg/mL (≈ 4.08 µM).

From ChEMBL document CHEMBL5352410, “Discovery of novel selenium-containing azole derivatives as antifungal agents by exploiting the hydrophobic cleft of CYP51” (Eur J Med Chem, 2022)
